Laboratory results: US20120277316A1, “METHODS AND COMPOSITIONS FOR TREATING AND PREVENTING PARENTERAL NUTRITION ASSOCIATED LIVER DISEASE” (University of Tennesse Research Foundation a university, priority 2010, published 2012)

Columns and labels:
Assay type in all cases: cell-based
[1] = Cell viability by trypan blue staining; conditions: human, HepG2 cells; 2 hour treatment with CDCA alone; trypan blue; read-out: viable cells
Experimental: (§1) Experimental Design. HepG2 cells were plated and grown to 95% confluence for all experiments, except for fluorescent cell staining, where cells where grown to 50% confluence. Cells were treated with CDCA […] (Sigma-Aldrich), ±EPA 1-10 μM (Nu-check Prep, Elysian, Minn., United States of America), and ±DHA 10 μM (Nu-check Prep). […] Cells were treated for 0.5, 1, 1.5, 2, 4 hour for mRNA analysis by quantitative real time RT-PCR.
(§2) Cell Viability. Cell viability was evaluated after treating cells, as described above, followed by trypsinization in order to disperse cells into a 0.2% trypan blue (Sigma-Aldrich) cell suspension mixture. After staining, 10 μL of cell suspension was placed on a hemocytometer with a glass cover slip and evaluated using an inverted microscope (25× magnification). All cells were counted and viability was accessed.

[2] = tested on: pro-inflammatory cytokine (IL-6) mRNA in HepG2 cells; assay: IL-6 mRNA by quantitative RT-PCR; conditions: CDCA 200 uM, 2 hour incubation
Experimental: Quantitative RT-PCR. Total RNA was isolated from confluent cultures according to manufacturer's instructions with TRIzol™ reagent (Invitrogen, Carlsbad, Calif., United States of America). First-strand cDNAs were synthesized from 2 μg of total RNA in a 21 μl reaction volume using the SuperScript™ First-Strand Synthesis System for RT-PCR (Invitrogen) in accordance with the manufacturer's instructions. Quantitative PCR was performed in triplicate using the Model 7500 Sequence Detection System (Applied Biosystems, Foster City, Calif., United States of America). Independent PCRs were performed using the same cDNA for both the gene of interest and the 18S rRNA, using the SYBR Green PCR Master Mix (Applied Biosystems). Specific primers were designed for the genes of interest (Fas, TRAIL-R2, and IL-6). […] The change in fluorescence of SYBR Green in every cycle was monitored by the system software, and the threshold cycle (CT) above the background for each reaction was calculated. […] The mRNA expression level relative to the calibrator was expressed as 2^−ΔΔCT. […]
IL6 mRNA levels were measured by quantitative RT-PCR after a 2 hour incubation in a HepG2 cells. […] Statistical significance was determined using an ANOVA with Tukey's LSD. […] Statistical significance was determined using an ANOVA with Tukey's LSD.

Fas mRNA in HepG2 cells = assay: Fas mRNA by quantitative real-time RT-PCR; conditions: HepG2 cells incubated with CDCA 200 μM alone; 0.5 hours; relative to vehicle control
Experimental: (§3) Homogeneous Caspase-3/7 Assay (Promega Corporation, Madison, Wis., United States of America). Specific apoptotic mediators (Fas and TRAIL-R2) were evaluated at 0.5, 1, 1.5, 2, and 4 hrs using quantitative real-time RT-PCR.
Experimental Design. HepG2 cells were plated and grown to 95% confluence for all experiments, except for fluorescent cell staining, where cells where grown to 50% confluence. […] HepG2 cells were treated for 4, 8, 12, 18, 24 hours for cell viability and caspase assays. Cells were treated for 0.5, 1, 1.5, 2, 4 hour for mRNA analysis by quantitative real time RT-PCR.
Quantitative RT-PCR. Total RNA was isolated from confluent cultures according to manufacturer's instructions with TRIzol™ reagent (Invitrogen, Carlsbad, Calif., United States of America). First-strand cDNAs were synthesized from 2 μg of total RNA in a 21 μl reaction volume using the SuperScript™ First-Strand Synthesis System for RT-PCR (Invitrogen) in accordance with the manufacturer's instructions. Quantitative PCR was performed in triplicate using the Model 7500 Sequence Detection System (Applied Biosystems, Foster City, Calif., United States of America). […] The change in fluorescence of SYBR Green in every cycle was monitored by the system software, and the threshold cycle (CT) above the background for each reaction was calculated. […] The mRNA expression level relative to the calibrator was expressed as 2^−ΔΔCT.

[3] = tested on: caspase 3/7 activity in HepG2 cells; assay: Apo-ONE Homogeneous Caspase-3/7 Assay, CDCA-induced apoptosis; conditions: for caspase-3/7 attenuation: HepG2 cells, CDCA 200 μM, 12 hours, 10 μM EPA, 10 μM DHA, or 5 μM EPA+5 μM DHA
Experimental: Cultured HepG2 cells were treated with 50, 100, or 200 μM CDCA in the presence and absence of 10 μM EPA, 10 μM DHA, or 5 μM EPA+5 μM DHA. Controls included cells incubated with vehicle alone (EtOH). Apoptosis was evaluated after 4, 8, 12, 18, and 24 hours using the Apo-ONE®
as §3
Experimental Design. HepG2 cells were plated and grown to 95% confluence for all experiments, except for fluorescent cell staining, where cells where grown to 50% confluence. Cells were treated with CDCA […] (Sigma-Aldrich), ±EPA 1-10 μM (Nu-check Prep, Elysian, Minn., United States of America), and ±DHA 10 μM (Nu-check Prep). HepG2 cells were treated for 4, 8, 12, 18, 24 hours for cell viability and caspase assays. Cells were treated for 0.5, 1, 1.5, 2, 4 hour for mRNA analysis by quantitative real time RT-PCR.
Caspase assay. Apoptosis was evaluated using the Apo-ONE® Homogeneous Caspase-3/7 Assay purchased from Promega Corporation (Madison, Wis., United States of America) and performed according to the manufacturer's instructions. HepG2 cells were treated for 4, 8, 12, 18, 24 hours followed by the addition of caspase-3/7 reagent and incubation for 4 hours in the dark on a rocking shaker at low speed. Results were read at fluorescein 485 nm/535 nm with a Victor 2, Perkin-Elmer Wallace 1420 multilabel counter (Shelton, Conn., United States of America).

HepG2 cells [4] = assay: Nuclear staining with ethidium bromide/acridine orange; conditions: cells treated with the substance alone, 2 hours
Experimental: Nuclear staining. Cells were grown on glass inserts and once 50% confluence was achieved, cells were treated with CDCA±EPA for 2 hours. Immediately following treatment, cells were washed with phosphate buffered saline (PBS), fixed with methanol (−10° C.) for 15 minutes, then washed with PBS. Fixed cells were then stained for 5 minutes with ethidium bromide (100 μg/ml) and acridine orange (100 μg/ml) (EB/AO) dye mixture (Sigma-Aldrich) in PBS. Following staining, cells underwent 5 washes prior to being mounted on glass slides using VECTASHIELD® mounting medium and analyzed using an Olympus America Inc., IX50-FLA inverted reflected light fluorescence microscope (Lake Success, N.Y., United States of America).

HepG2 cells [5] = assay: Cell viability by trypan blue staining
Experimental: as §1, §2

Compound: C[C@H](CCC(=O)O)[C@H]1CC[C@H]2[C@@H]3[C@H](O)C[C@@H]4C[C@H](O)CC[C@]4(C)[C@H]3CC[C@]12C [CDCA, chenodeoxycholic acid]
- viability at 2 h [1]: 88%
- pro-inflammatory cytokine (IL-6) mRNA expression [2]: significantly increased
- increase in Fas mRNA levels (Fas mRNA in HepG2 cells): 4.7 fold
- apoptotic effect of CDCA (caspase 3/7 activity) ([3]; CDCA 50-200 μM, across all time points (4-24 hours)): dose-dependent
- time of peak caspase activity ([3]; HepG2 cells treated with 200 μM CDCA): 12 h
- EB/AO nuclear staining appearance (HepG2 cells [4]): cellular integrity is lost

Compound: CC/C=C\C/C=C\C/C=C\C/C=C\C/C=C\CCCC(=O)O [EPA, eicosapentaenoic acid]
- viable cells (HepG2 cells [5]; 2 hour treatment with CDCA and EPA, trypan blue): 100%
- total cell count relative to cells exposed to medium alone (HepG2 cells [5]; treatment with CDCA and EPA): 75%
- caspase-3/7 attenuation [3]: 22%

Compound: CC/C=C\C/C=C\C/C=C\C/C=C\C/C=C\C/C=C\CCC(=O)O [DHA, docosahexaenoic acid]
- caspase-3/7 attenuation [3]: 9%
